Experimental data from article PMC8073719, “Biochemical and Biophysical Characterization of Recombinant Human 3-Phosphoglycerate Dehydrogenase” (International Journal of Molecular Sciences, 2021).
pKd, pKi: −log10 of the molar value. Several values for one entry are separate records, joined by “and”; a condition that tells them apart may be missing. Equal values may be shown once. Entries after “also recorded” stand apart in the source; their conditions may differ. Read-outs that look alike come from different tables or passages of the source. Each block holds one molecule with its values, some of them ahead of it.

Columns and labels:
hPHGDH [1] = target: T1, hPHGDH (Homo sapiens, UniProt O43175); experiment: hPHGDH forward reaction kinetics (PSAT-coupled or hydrazine assay, NADH fluorescence); format: biochemical; design: His-tagged full-length hPHGDH was expressed in BL21(DE3) E. coli cells; made in house; host or cells: E. coli BL21(DE3)
T1 sequence (O43175 1-533): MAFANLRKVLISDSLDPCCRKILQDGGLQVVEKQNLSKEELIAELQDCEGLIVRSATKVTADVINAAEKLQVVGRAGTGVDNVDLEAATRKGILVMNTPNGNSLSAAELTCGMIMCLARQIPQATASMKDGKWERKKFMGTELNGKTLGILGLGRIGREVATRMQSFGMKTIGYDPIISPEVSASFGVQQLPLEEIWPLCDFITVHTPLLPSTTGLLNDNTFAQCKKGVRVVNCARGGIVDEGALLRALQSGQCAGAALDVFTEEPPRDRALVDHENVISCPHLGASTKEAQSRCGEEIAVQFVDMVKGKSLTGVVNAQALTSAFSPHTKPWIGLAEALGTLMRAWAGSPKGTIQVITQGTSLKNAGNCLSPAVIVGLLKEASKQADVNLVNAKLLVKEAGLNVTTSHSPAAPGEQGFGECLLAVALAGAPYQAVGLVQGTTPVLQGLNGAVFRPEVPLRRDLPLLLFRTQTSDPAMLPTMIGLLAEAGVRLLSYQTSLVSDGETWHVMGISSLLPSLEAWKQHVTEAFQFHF
Description: PSAT was added to drive the reaction and to avoid product inhibition of hPHGDH.
(§1) The latter assay was used to determine the apparent kinetic parameters on alternative substrates.

hPHGDH [2] = target: T1, hPHGDH; design: His-tagged full-length hPHGDH was expressed in BL21(DE3) E. coli cells; made in house; host or cells: E. coli BL21(DE3); conditions: cited from earlier work
hPHGDH [3] = target: T1, hPHGDH; experiment: Limited proteolysis with trypsin, SDS-PAGE; design: His-tagged full-length hPHGDH was expressed in BL21(DE3) E. coli cells; made in house; host or cells: E. coli BL21(DE3); conditions: 5% (w/w) trypsin; 250 mM potassium phosphate, 500 mM sodium tartrate or 0.1 mM NCT-503
Description: hPHGDH at 0.4 mg/mL was incubated at 25 °C in 50 mM Hepes pH 7.5, 100 mM NaCl, 10% (v/v) glycerol, 1 mM EDTA and 5 mM 2-mercaptoethanol in the presence of 5% (w/w) trypsin (Roche, Basel, Switzerland). […] At different times (0, 30, 60, 120 and 240 min), 8 µg of protein was diluted in SDS-sample buffer, heated at 95 °C for 5 min and analyzed by SDS-PAGE.

hPHGDH [4] = target: T1, hPHGDH; experiment: Effect of salts, phosphate and serine synthesis metabolites on hPHGDH activity (hydrazine assay); format: biochemical; design: His-tagged full-length hPHGDH was expressed in BL21(DE3) E. coli cells; made in house; host or cells: E. coli BL21(DE3); conditions: for decrease of hPHGDH activity: […] 3PG
Description: The effects of KCl, NaCl, MgCl2 and CaCl2 and of pH and temperature on enzyme activity and stability were investigated using the hydrazine assay. […] The dependence of activity on pH was fitted using an equation for three pKa values, according to [44], providing apparent values unrelated to microscopic ones.

hPHGDH [5] = target: T1, hPHGDH; experiment: Ligand binding by quenching of protein fluorescence at 330 nm
Description: Protein fluorescence spectra were measured at 0.06–0.1 mg/mL protein concentration in 10 mM potassium phosphate, pH 7.0, 15 °C; spectra were recorded using a Jasco FP-750 instrument and were corrected for the buffer contribution. Protein fluorescence spectra were recorded between 300 and 450 nm, with excitation at 280 and 298 nm.
All recorded spectra were subtracted for the contribution of the ligand (added to the buffer only) and were corrected for dilution at every addition. […] In all cases, Kd values were determined by fitting the data to a hyperbolic function.

hPHGDH [6] = target: T1, hPHGDH; experiment: Temperature-ramp unfolding (melting temperature) with cofactors; format: binding; design: His-tagged full-length hPHGDH was expressed in BL21(DE3) E. coli cells; made in house; host or cells: E. coli BL21(DE3)
Description: Temperature-ramp experiments were performed in 10 mM potassium phosphate, pH 7.0. For this, a software-driven, Peltier-equipped fluorimeter was used to measure the protein fluorescence change at 330 nm or a CD spectropolarimeter to follow the CD signal at 280 nm in order to reproduce a temperature gradient (0.5 °C/min) [31].

hPHGDH [7] = target: T1, hPHGDH; experiment: hPHGDH reverse reaction kinetics (decrease in NADH fluorescence at 450 nm); conditions: reverse reaction, 5 mM NADH
Description: as §1

hPHGDH [8] = target: T1, hPHGDH; experiment: Inhibition of hPHGDH activity by inhibitors (hydrazine assay); format: biochemical; design: His-tagged full-length hPHGDH was expressed in BL21(DE3) E. coli cells; made in house; host or cells: E. coli BL21(DE3); conditions: kinetics on 3PG at increasing inhibitor concentration
E. coli PHGDH = conditions: reverse reaction; cited from earlier work
[9] = substrate varied, […] NAD+, hydrazine assay, Figure S3B,D-F

Compound: CC(O)CC(=O)O [D-3-Hydroxybutyrate]
maximal rate of Michaelis–Menten fit (hPHGDH [1]; [9]): 2.527

Compound: O=C(O)C(O)COP(=O)(O)O [3PG, D-3-phosphoglycerate]
maximal rate of Michaelis–Menten fit (numerator of y = a x/(b + x)) (hPHGDH [1]; 3PG varied, 120 µM NAD+, PSAT-coupled assay, Figure S3A): 1.282 | maximal rate of Michaelis–Menten fit (hPHGDH [1]; 3PG varied, 120 µM NAD+, hydrazine assay, Figure S3A): 1.5348 | kcat (hPHGDH [1]; forward reaction, substrate varied, 120 µM NAD^+, PSAT-coupled (1) and hydrazine (2) assays, 37 °C, 25 mM Hepes pH 7.0, per monomer): 1.5 s⁻¹ | Km (hPHGDH [1]; forward reaction, substrate varied, 120 µM NAD^+, PSAT-coupled (1) and hydrazine (2) assays, 37 °C, pH 7.0): 260 µM | maximal rate of Michaelis–Menten fit (hPHGDH [1]; [9]): 2.972 | Hill coefficient n (hPHGDH [2]; negative cooperativity in a previous work): 0.63–0.67

Compound: O=C([O-])C(O)C(O)C(=O)[O-].[Na+].[Na+] (centres unmarked) [sodium tartrate]
proteolysis of the full-length enzyme (hPHGDH [3]): hampered

Compound: [Cl-].[Na+] [NaCl]
initial activity lost (hPHGDH [4]; at >20 mM NaCl): 30%

Compound: [Cl-].[K+] [KCl]
decrease of hPHGDH activity (hPHGDH [4]; at 10 mM KCl, […] NAD+): 40% | initial activity lost (hPHGDH [4]; at ≥10 mM KCl): 30%

Compound: Cc1cc(C)nc(NC(=S)N2CCN(Cc3ccc(C(F)(F)F)cc3)CC2)c1 [NCT-503]
mechanism of inhibition (hPHGDH [8]): noncompetitive inhibitor; also recorded: noncompetitive inhibition mechanism | proteolysis of the full-length enzyme (hPHGDH [3]): to a lesser extent

Compound: O=C(O)CCC(=O)C(=O)O [α-Ketoglutarate]
pKi (hPHGDH [7]; Ki (substrate inhibition), 37 °C, pH 7.0): 1.88 | pKi (hPHGDH [7]; Ki of fit with substrate inhibition, Figure S4A,C,D): 1.88 | Km (E. coli PHGDH): 500 µM | Km (hPHGDH [2]; commercial enzyme preparation): ~10000 µM

The next lines start with the values.

maximal rate of Michaelis–Menten fit (hPHGDH [1]; [9]): 0.4351
Compound: O=C(O)C[C@@H](O)C(=O)O [D-Malate]

pKd (hPHGDH [5]; Kd (NAD^+; main phase of NADH binding), discussion value): ~3.89 | pKd (hPHGDH [5]; Kd, quenching of protein fluorescence at 15 °C, 1 μM enzyme, monophasic): 3.89 | maximal rate of Michaelis–Menten fit (hPHGDH [1]; NAD+ varied, 2.5 mM 3PG, PSAT-coupled assay, Figure S3C): 2.039 | maximal rate of Michaelis–Menten fit (hPHGDH [1]; NAD+ varied, 2.5 mM 3PG, hydrazine assay, Figure S3C): 2.4118 | Tm, circular dichroism signal at 280 nm (hPHGDH [6]; 120 µM NAD^+ or 100 µM NADH, protein alone 47.5): 48.2 °C | Tm, CD (220 nm) (hPHGDH [6]; +120 μM NAD^+ or +100 μM NADH, hPHGDH alone 47.2 ± 0.5): 48.2 ± 1.7 °C | Tm, Fluorescence (330 nm) (hPHGDH [6]; +120 μM NAD^+ or +100 μM NADH, hPHGDH alone 48.4 ± 2.1): 52.4 °C and 52.4 ± 0.4 °C
Compound: NC(=O)c1ccc[n+]([C@@H]2O[C@H](COP(=O)(O)OP(=O)(O)OC[C@H]3O[C@@H](n4cnc5c(N)ncnc54)[C@H](O)[C@@H]3O)[C@@H](O)[C@H]2O)c1 [NAD^+]

maximal rate of fit with substrate inhibition (hPHGDH [7]; Figure S4A,C,D): 1.7591
Compound: O=C(O)CC(=O)C(=O)O [Oxaloacetate]

activity lost (hPHGDH [4]; at 1 mM potassium phosphate): 30% | effect on enzymatic activity (hPHGDH [4]; at 400 mM phosphate): fully abrogated | proteolysis of the full-length enzyme (hPHGDH [3]): hampered
Compound: O=P(O)(O)O [potassium phosphate]

maximal rate of Michaelis–Menten fit (hPHGDH [1]; [9]): 5.407
Compound: C[C@@H](O)C(=O)O [D-Lactate]

decrease of hPHGDH activity (hPHGDH [4]; at 250 mM D-serine): ~ 25%
Compound: N[C@H](CO)C(=O)O [D-serine]

maximal rate of Michaelis–Menten fit (hPHGDH [1]; [9]): 0.4125
Compound: O=C(O)[C@@H](O)[C@H](O)C(=O)O [D-Tartrate]
